Data reported in US9695155B2, “Herbicidal substituted pyrimidinyloxy benzene compounds” (E. I. DU PONT DE NEMOURS AND COMPANY, priority 2013, dated 2017).

Key:
windgrass = assay: Test D preemergence; format: in vivo, Apera spica-venti; details: Apera spica-venti, pre-emergence; for pest or weed control at 31 g/ha: 31 g ai/ha; for pest or weed control at 125 g/ha: 125 g ai/ha
Procedure, shortened: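 Visual rating vs untreated controls, 0 = no effect, 100 = complete control, taken 7–21 d after treatment. Pre: silt loam soil. Post: potting medium, plants 2–18 cm, 1–4 leaf. Formulation: non-phytotoxic solvent mix + surfactant.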

hairy beggarticks = assay: Test E preemergence; format: in vivo, Bidens pilosa; details: for Beggarticks plant response rating: scale 0 to 100 (0 no effect, 100 complete control); for Plant response rating, Beggarticks: scale 0 to 100, 0 no effect, 100 complete control
Procedure, shortened: (§1)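 Response was scored visually on a 0-100 scale (100 = complete control) versus controls after 14 to 21 days in the greenhouse. Test chemicals, formulated with surfactant in a non-phytotoxic solvent mixture, had been applied preemergence to seeds in silt loam soil or postemergence to 1- to 4-leaf plants in potting medium.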

soybean = assay: Test E postemergence; format: in vivo, Glycine max; details: Glycine max, post-emergence; for plant response (crop injury) rating, soybean, 0-100 scale at 31 g/ha / plant response (crop injury) rating, soybean, 0-100 scale at 62 g/ha / plant response (crop injury) rating, soybean, 0-100 scale at 125 g/ha: Postemergence, scale 0 to 100; for plant response (crop injury) rating, soybean, 0-100 scale at 31 g/ha: 31 g ai/ha; for plant response (crop injury) rating, soybean, 0-100 scale at 62 g/ha: 62 g ai/ha; for plant response (crop injury) rating, soybean, 0-100 scale at 125 g/ha: 125 g ai/ha; for plant response (crop injury) rating, soybean, 0-100 scale at 16 g/ha: 16 g ai/ha
Procedure, shortened: as §1

fall panicum [1] = assay: Test E preemergence; format: in vivo, Panicum dichotomiflorum; details: for Panicum, Fall plant response rating: scale 0 to 100 (0 no effect, 100 complete control); for Plant response rating, Panicum, Fall: scale 0 to 100, 0 no effect, 100 complete control
Procedure, shortened: as §1

yellow nutsedge = assay: Test E preemergence; format: in vivo, Cyperus esculentus; details: for Nutsedge, Yellow plant response rating: scale 0 to 100 (0 no effect, 100 complete control); for Plant response rating, Nutsedge, Yellow: scale 0 to 100, 0 no effect, 100 complete control
Procedure, shortened: as §1

fall panicum [2] = assay: Test E postemergence; format: in vivo, Panicum dichotomiflorum; details: Panicum dichotomiflorum, post-emergence, read-out: Plant response rating, Panicum, Fall; for pest or weed control at 31 g/ha / pest or weed control at 62 g/ha / pest or weed control at 125 g/ha: Postemergence, scale 0 to 100; for pest or weed control at 31 g/ha: 31 g ai/ha; for pest or weed control at 62 g/ha: 62 g ai/ha; for pest or weed control at 125 g/ha: 125 g ai/ha; for pest or weed control at 16 g/ha: 16 g ai/ha
Procedure, shortened: as §1

dayflower = assay: Test E preemergence; format: in vivo, Commelina virginica; details: for Dayflower, VA plant response rating: scale 0 to 100 (0 no effect, 100 complete control); for Plant response rating, Dayflower, VA: scale 0 to 100, 0 no effect, 100 complete control
Procedure, shortened: as §1

[3] = scale 0 (no effect) to 100 (complete control), read-out: Plant response rating, Windgrass
[4] = scale 0-100, read-out: Plant response rating, Windgrass
[5] = postemergence, scale 0 to 100, 0 no effect, 100 complete control
[6] = postemergence, 8 g ai/ha, scale 0 to 100, 0 no effect, 100 complete control

For `N#Cc1cccc(Oc2ncc(Cl)cn2)c1-n1cc(Br)cn1` [Compound 52, 2-(4-bromo-1H-pyrazol-1-yl)-3-[(5-chloro-2-pyrimidinyl)oxy]benzonitrile], the pest or weed control at 31 g/ha (windgrass; [3]) was 50%, the pest or weed control at 62 g/ha (windgrass; 62 g ai/ha, scale 0-100, read-out: Plant response rating, Windgrass) was 70% and the pest or weed control at 125 g/ha (windgrass; [4]) was 100%. The pest or weed control at 250 g/ha (windgrass; 250 g ai/ha, scale 0-100, read-out: Plant response rating, Windgrass) was 100%, the “Beggarticks plant response rating” value (hairy beggarticks; 16 g ai/ha, preemergence) was 0 and the “Beggarticks plant response rating” value (hairy beggarticks; 31 g ai/ha, preemergence) was 0. For the same compound, the “Plant response rating, Beggarticks” value (hairy beggarticks; Preemergence, 62 g ai/ha) was 0, the “Plant response rating, Beggarticks” value (hairy beggarticks; preemergence, 125 g ai/ha) was 40 and the “Plant response rating, Beggarticks” value (hairy beggarticks; preemergence, 250 g ai/ha) was 65. The plant response (crop injury) rating, soybean, 0-100 scale at 31 g/ha (soybean) was 75%, the plant response (crop injury) rating, soybean, 0-100 scale at 62 g/ha (soybean) was 90% and the plant response (crop injury) rating, soybean, 0-100 scale at 125 g/ha (soybean) was 95%. For the same compound, the plant response (crop injury) rating, soybean, 0-100 scale at 16 g/ha (soybean; [5]) was 70%, the “Panicum, Fall plant response rating” value (fall panicum [1]; 16 g ai/ha) was 0 and the “Panicum, Fall plant response rating” value (fall panicum [1]; 31 g ai/ha) was 0. For the same compound, the “Panicum, Fall plant response rating” value (fall panicum [1]; 62 g ai/ha) was 100, the “Plant response rating, Panicum, Fall” value (fall panicum [1]; 125 g ai/ha) was 100 and the “Plant response rating, Panicum, Fall” value (fall panicum [1]; 250 g ai/ha) was 100. For the same compound, the “Nutsedge, Yellow plant response rating” value (yellow nutsedge; 16 g ai/ha) was 0, the “Nutsedge, Yellow plant response rating” value (yellow nutsedge; 31 g ai/ha) was 0 and the “Nutsedge, Yellow plant response rating” value (yellow nutsedge; 62 g ai/ha) was 0. For the same compound, the “Plant response rating, Nutsedge, Yellow” value (yellow nutsedge; 125 g ai/ha) was 25, the “Plant response rating, Nutsedge, Yellow” value (yellow nutsedge; 250 g ai/ha) was 50 and the pest or weed control at 31 g/ha (fall panicum [2]) was 10%. For the same compound, the pest or weed control at 62 g/ha (fall panicum [2]) was 10%, the pest or weed control at 125 g/ha (fall panicum [2]) was 40% and the pest or weed control at 16 g/ha (fall panicum [2]; [5]) was 5%. For the same compound, the “Dayflower, VA plant response rating” value (dayflower; 16 g ai/ha) was 0, the “Dayflower, VA plant response rating” value (dayflower; 31 g ai/ha) was 0 and the “Dayflower, VA plant response rating” value (dayflower; 62 g ai/ha) was 5. For the same compound, the “Plant response rating, Dayflower, VA” value (dayflower; 125 g ai/ha) was 70 and the “Plant response rating, Dayflower, VA” value (dayflower; 250 g ai/ha) was 98.
`N#Cc1cccc(Oc2ncc(Cl)cn2)c1-n1cc(OCC(F)(F)F)cn1` [Compound 274, 3-[(5-chloro-2-pyrimidinyl)oxy]-2-[4-(2,2,2-trifluoroethoxy)-1H-pyrazol-1-yl]benzonitrile] gave a pest or weed control at 16 g/ha (windgrass; 16 g ai/ha, scale 0 (no effect) to 100 (complete control), read-out: Plant response rating, Windgrass) of 20%, a pest or weed control at 31 g/ha (windgrass; [3]) of 90% and a pest or weed control at 125 g/ha (windgrass; [4]) of 100%. The plant response (crop injury) rating, soybean, 0-100 scale at 31 g/ha (soybean) was 75%, the plant response (crop injury) rating, soybean, 0-100 scale at 62 g/ha (soybean) was 95% and the plant response (crop injury) rating, soybean, 0-100 scale at 125 g/ha (soybean) was 95%. The plant response (crop injury) rating, soybean, 0-100 scale at 8 g/ha (soybean; [6]) was 20%, the plant response (crop injury) rating, soybean, 0-100 scale at 16 g/ha (soybean; [5]) was 35% and the pest or weed control at 31 g/ha (fall panicum [2]) was 20%. For the same compound, the pest or weed control at 62 g/ha (fall panicum [2]) was 50%, the pest or weed control at 125 g/ha (fall panicum [2]) was 20% and the pest or weed control at 8 g/ha (fall panicum [2]; [6]) was 10%. The pest or weed control at 16 g/ha (fall panicum [2]; [5]) was 15%.
